Assay results published in US20110077251A1, “NOVEL 17 BETA LUPANE DERIVATIVES” (priority 2009, published 2011).

Each compound was assayed on HIVIIIB (assay: HIV-1 replication in MT2 cell line with 30% human serum (RT activity in supernatant)). Settings: Human immunodeficiency virus 1, 120 h, MT2 cells, day 5 after infection, average if tested more than once, read-out: MT2 (HIVIIIB) with human serum IC50 range.
Assay type: cell-based
Method: HIV-1 Replication in MT2 cell line with and without 30% human serum: The cells are infected at a Multiciplicity of Infection (MOI) of 0.5 for 3 h and then washed twice with complete media to remove residual virus. Cells are then resuspended at 0.5×10^6/ml in complete medium (RPMI, 10% FBS, 1% sodium pyruvate), and seeded into 96-well plates (6.25×10^4/well). The cells are cultured in the presence or absence of various concentrations of test compounds in serial dilutions for 3 days at 37° C. The test compounds are serially diluted in complete medium supplemented or not with 30% human serum. After 3 days, 100 μL of cultured medium with cells are replaced with 120 μL of freshly diluted test compounds in complete medium containing or not 30% Human serum. The level of HIV-1 replication is determined at days 5 after infection by the presence of viral RT activity in harvested supernatant fluid. The IC50 values for the virus replication are determined by using GRAPHPAD PRISM software.
The IC50 of the compounds tested in accordance with the HIV replication activity assay MT2 (HIVIIIB) with or without human serum are represented in Table 6.

**Q.** How did the IC50 turn out when `C=C(C)[C@@H]1CC[C@]2(NC(=O)OC(C)(C)C)CC[C@]3(C)[C@H](CC[C@@H]4[C@@]5(C)CC[C@H](OC(=O)[C@H]6CC[C@@](C)(C(=O)O)C6(C)C)C(C)(C)[C@@H]5CC[C@]43C)[C@@H]12` [Cpd 8-3, 3β-O-[(1′S,3′R)-2′,2′,3′-Trimethyl-cyclopentane-3′-carboxylic acid-1′-carboxyl]-17β-tert-butyloxycarbonylamino-28-norlup-20(29)-ene] was run?
**A.** > 1 µM

**Q.** Which IC50 does the source give for `C=C(C)[C@@H]1CC[C@]2(N(C)C)CC[C@]3(C)[C@H](CC[C@@H]4[C@@]5(C)CC[C@H](OC(=O)CC(C)(C)C(=O)O)C(C)(C)[C@@H]5CC[C@]43C)[C@@H]12` [Cpd 10-3, 3β-O-(3′,3′-Dimethylsuccinyl)-17β-dimethylamino-28-norlup-20(29)-ene] here?
**A.** < 0.199 µM

**Q.** `C=C(C)[C@@H]1CC[C@]2(NC(=O)N3CCCC3)CC[C@]3(C)[C@H](CC[C@@H]4[C@@]5(C)CC[C@H](OC(=O)CC(C)(C)C(=O)O)C(C)(C)[C@@H]5CC[C@]43C)[C@@H]12` [Cpd 11-29, 3β-O-(3′,3′-Dimethylsuccinyl)-17β-[(pyrrolidine-1-carbonyl)-amino]-28-norlup-20(29)-ene] was tested. Which IC50 did it give?
**A.** < 0.199 µM

**Q.** How did the IC50 turn out when `C=C(C)[C@@H]1CC[C@]2(NC(=O)N3CCCCC3)CC[C@]3(C)[C@H](CC[C@@H]4[C@@]5(C)CC[C@H](OC(=O)CC(C)(C)C(=O)O)C(C)(C)[C@@H]5CC[C@]43C)[C@@H]12` [Cpd 11-11, 3β-O-(3′,3′-Dimethylsuccinyl)-17β-[(piperidine-1-carbonyl)-amino]-28-norlup-20(29)-ene] was run?
**A.** < 0.199 µM

**Q.** How did the IC50 turn out when `C=C(C)[C@@H]1CC[C@]2(NC(=O)Nc3ccc(F)cc3)CC[C@]3(C)[C@H](CC[C@@H]4[C@@]5(C)CC[C@H](OC(=O)CC(C)(C)C(=O)O)C(C)(C)[C@@H]5CC[C@]43C)[C@@H]12` [Cpd 11-17, 3β-O-(3′,3′-Dimethylsuccinyl)-17β-(N′-4-fluorophenyl-ureido)-28-norlup-20(29)-ene] was run?
**A.** < 0.199 µM

**Q.** `C=C(C)[C@@H]1CC[C@]2(NC(=O)c3cscn3)CC[C@]3(C)[C@H](CC[C@@H]4[C@@]5(C)CC[C@H](OC(=O)CC(C)(C)C(=O)O)C(C)(C)[C@@H]5CC[C@]43C)[C@@H]12` [Cpd 13-13, 3β-O-(3′,3′-Dimethylsuccinyl)-17β-[(thiazol-4-ylcarbonyl)-amino]-28-norlup-20(29)-ene] was tested. Which IC50 did it give?
**A.** < 0.199 µM

**Q.** For `C=C(C)[C@@H]1CC[C@]2(N)CC[C@]3(C)[C@H](CC[C@@H]4[C@@]5(C)CC[C@H](OC(=O)[C@H]6CCC[C@@H](C(=O)O)C6)C(C)(C)[C@@H]5CC[C@]43C)[C@@H]12` [Cpd 9-3, 3β-O-(cis-Cyclohexane-3′-carboxylic acid-1′-carboxyl)-17β-amino-28-norlup-20(29)-ene], which IC50 is on record?
**A.** < 0.199 µM

**Q.** For `C=C(C)[C@@H]1CC[C@]2(NC(=O)c3ccncc3)CC[C@]3(C)[C@H](CC[C@@H]4[C@@]5(C)CC[C@H](OC(=O)[C@H]6CCC[C@@H](C(=O)O)C6)C(C)(C)[C@@H]5CC[C@]43C)[C@@H]12` [Cpd 13-15, 3β-O-(cis-Cyclohexane-3′-carboxylic acid-1′-carboxyl)-17β-(pyridin-4-ylcarbonyl)-amino-28-norlup-20(29)-ene], which IC50 is on record?
**A.** > 1 µM

**Q.** Which IC50 does the source give for `C=C(C)[C@@H]1CC[C@]2(NC(=O)Nc3ccncc3)CC[C@]3(C)[C@H](CC[C@@H]4[C@@]5(C)CC[C@H](OC(=O)CC(C)(C)C(=O)O)C(C)(C)[C@@H]5CC[C@]43C)[C@@H]12` [Cpd 11-26, 3β-O-(3′,3′-Dimethylsuccinyl)-17β-(N′-pyridin-4-yl-ureido)-28-norlup-20(29)-ene] here?
**A.** < 0.199 µM

**Q.** Which IC50 does the source give for `C=C(C)[C@@H]1CC[C@]2(N)CC[C@]3(C)[C@H](CC[C@@H]4[C@@]5(C)CC[C@H](OC(=O)CC(C)(C)C(=O)O)C(C)(C)[C@@H]5CC[C@]43C)[C@@H]12` [Cpd 9-1, 17β-Amino-3β-O-(3′,3′-dimethylsuccinyl)-28-norlup-20(29)-ene] here?
**A.** < 0.199 µM

**Q.** How did the IC50 turn out when `C=C(C)[C@@H]1CC[C@]2(NC(=O)NCC3CCN(C)CC3)CC[C@]3(C)[C@H](CC[C@@H]4[C@@]5(C)CC[C@H](OC(=O)CC(C)(C)C(=O)O)C(C)(C)[C@@H]5CC[C@]43C)[C@@H]12` [Cpd 11-14, 3β-O-(3′,3′-Dimethylsuccinyl)-17β-[N′-(1-methyl-piperidin-4-ylmethyl)-ureido]-28-norlup-20(29)-ene] was run?
**A.** < 0.199 µM

**Q.** Which IC50 does the source give for `C=C(C)[C@@H]1CC[C@]2(NC(=O)N[C@@H](C)c3ccccc3)CC[C@]3(C)[C@H](CC[C@@H]4[C@@]5(C)CC[C@H](OC(=O)CC(C)(C)C(=O)O)C(C)(C)[C@@H]5CC[C@]43C)[C@@H]12` [Cpd 11-23, 3β-O-(3′,3′-Dimethylsuccinyl)-17β-(N′-(S)-1-phenyl-ethyl-ureido)-28-norlup-20(29)-ene] here?
**A.** < 0.199 µM

**Q.** How did the IC50 turn out when `C=C(C)[C@@H]1CC[C@]2(NC(=O)Nc3ccccc3)CC[C@]3(C)[C@H](CC[C@@H]4[C@@]5(C)CC[C@H](OC(=O)CC(C)(C)C(=O)O)C(C)(C)[C@@H]5CC[C@]43C)[C@@H]12` [Cpd 11-12, 3β-O-(3′,3′-Dimethylsuccinyl)-17β-(N′-phenyl-ureido)-28-norlup-20(29)-ene] was run?
**A.** < 0.199 µM

**Q.** `C=C(C)[C@@H]1CC[C@]2(NC(=O)Nc3nccs3)CC[C@]3(C)[C@H](CC[C@@H]4[C@@]5(C)CC[C@H](OC(=O)CC(C)(C)C(=O)O)C(C)(C)[C@@H]5CC[C@]43C)[C@@H]12` [Cpd 11-19, 3β-O-(3′,3′-Dimethylsuccinyl)-17β-(N′-thiazol-2-yl-ureido)-28-norlup-20(29)-ene] was tested. Which IC50 did it give?
**A.** < 0.199 µM

**Q.** Which IC50 does the source give for `C=C(C)[C@@H]1CC[C@]2(NC(=O)NCc3ccc(F)cc3)CC[C@]3(C)[C@H](CC[C@@H]4[C@@]5(C)CC[C@H](OC(=O)CC(C)(C)C(=O)O)C(C)(C)[C@@H]5CC[C@]43C)[C@@H]12` [Cpd 11-18, 3β-O-(3′,3′-Dimethylsuccinyl)-17β-(N′-4-fluorophenylmethyl-ureido)-28-norlup-20(29)-ene] here?
**A.** < 0.199 µM

**Q.** `C=C(C)[C@@H]1CC[C@]2(NC(=O)NC3CCCCC3)CC[C@]3(C)[C@H](CC[C@@H]4[C@@]5(C)CC[C@H](OC(=O)CC(C)(C)C(=O)O)C(C)(C)[C@@H]5CC[C@]43C)[C@@H]12` [Cpd 11-22, 3β-O-(3′,3′-Dimethylsuccinyl)-17β-(N′-cyclohexyl-ureido)-28-norlup-20(29)-ene] was tested. Which IC50 did it give?
**A.** < 0.199 µM

**Q.** How did the IC50 turn out when `C=C(C)[C@@H]1CC[C@]2(NC(=O)N[C@H](C)c3ccccc3)CC[C@]3(C)[C@H](CC[C@@H]4[C@@]5(C)CC[C@H](OC(=O)CC(C)(C)C(=O)O)C(C)(C)[C@@H]5CC[C@]43C)[C@@H]12` [Cpd 11-27, 3β-O-(3′,3′-Dimethylsuccinyl)-17β-(N′-(R)-1-phenyl-ethyl-ureido)-28-norlup-20(29)-ene] was run?
**A.** < 0.199 µM

**Q.** Which IC50 does the source give for `C=C(C)[C@@H]1CC[C@]2(NC(=O)NCC3CCCCC3)CC[C@]3(C)[C@H](CC[C@@H]4[C@@]5(C)CC[C@H](OC(=O)CC(C)(C)C(=O)O)C(C)(C)[C@@H]5CC[C@]43C)[C@@H]12` [Cpd 11-20, 3β-O-(3′,3′-Dimethylsuccinyl)-17β-(N′-cyclohexylmethyl-ureido)-28-norlup-20(29)-ene] here?
**A.** < 0.199 µM

**Q.** How did the IC50 turn out when `C=C(C)[C@@H]1CC[C@]2(NC(=O)NC(C)C)CC[C@]3(C)[C@H](CC[C@@H]4[C@@]5(C)CC[C@H](OC(=O)CC(C)(C)C(=O)O)C(C)(C)[C@@H]5CC[C@]43C)[C@@H]12` [Cpd 11-16, 3β-O-(3′,3′-Dimethylsuccinyl)-17β-(N′-isopropyl-ureido)-28-norlup-20(29)-ene] was run?
**A.** 0.2 to 0.999 µM

**Q.** With `C=C(C)[C@@H]1CC[C@]2(NC(=O)N(C)C)CC[C@]3(C)[C@H](CC[C@@H]4[C@@]5(C)CC[C@H](OC(=O)CC(C)(C)C(=O)O)C(C)(C)[C@@H]5CC[C@]43C)[C@@H]12` [Cpd 11-13, 3β-O-(3′,3′-Dimethylsuccinyl)-17β-(N′,N′-dimethyl-ureido)-28-norlup-20(29)-ene] as the compound, how does the IC50 read?
**A.** < 0.199 µM

**Q.** How did the IC50 turn out when `C=C(C)[C@@H]1CC[C@]2(NC(=O)NC(C)(C)c3ccccc3)CC[C@]3(C)[C@H](CC[C@@H]4[C@@]5(C)CC[C@H](OC(=O)CC(C)(C)C(=O)O)C(C)(C)[C@@H]5CC[C@]43C)[C@@H]12` [Cpd 11-28, 3β-O-(3′,3′-Dimethylsuccinyl)-17β-[N′-(1-methyl-1-phenylethyl)-ureido]-28-norlup-20(29)-ene] was run?
**A.** < 0.199 µM

**Q.** For `C=C(C)[C@@H]1CC[C@]2(NC(=O)c3nnc(C)o3)CC[C@]3(C)[C@H](CC[C@@H]4[C@@]5(C)CC[C@H](OC(=O)CC(C)(C)C(=O)O)C(C)(C)[C@@H]5CC[C@]43C)[C@@H]12` [Cpd 13-12, 3β-O-(3′,3′-Dimethylsuccinyl)-17β-[(5-methyl-[1,3,4]oxadiazole-2-carbonyl)-amino]-28-norlup-20(29)-ene], which IC50 is on record?
**A.** < 0.199 µM

Same assay, conditions: MT2 cells, day 5 after infection, average if tested more than once, read-out: MT2 (HIVIIIB) with human serum IC50 range

**Q.** “3β-O-(2′,2′-Dimethylsuccinyl)-17β-tert-butyloxycarbonylamino-28-norlup-20(29)-ene [Cpd 8-2]” was tested. Which IC50 did it give?
**A.** > 1 µM

**Q.** With `C=C(C)C1CCC2(NCC3CC3)CCC3(C)C(CCC4C5(C)CCC(OC(=O)CC(C)(C)C(=O)O)C(C)(C)C5CCC43C)C12` (stereo not drawn) [Cpd 10-2, 17β-(Cyclopropylmethyl-amino)-3β-O-(3′,3′-dimethylsuccinyl)-28-norlup-20(29)-ene] as the compound, how does the IC50 read?
**A.** < 0.199 µM
